pIC50, pKi: −log10 of the molar value.
How the values were obtained:
[1] = biological target: T1, Human recombinant adenosine A1 receptors (Homo sapiens, UniProt P30542); assay: Human adenosine A1 receptor binding assay with [3H] DPCPX (purine compounds, Example 2.2); settings: membranes of CHO-K1 cells
T1 construct: expressed in transfected cells; host or cells: CHO-K1, membrane preparation
T1 sequence (P30542 1-326): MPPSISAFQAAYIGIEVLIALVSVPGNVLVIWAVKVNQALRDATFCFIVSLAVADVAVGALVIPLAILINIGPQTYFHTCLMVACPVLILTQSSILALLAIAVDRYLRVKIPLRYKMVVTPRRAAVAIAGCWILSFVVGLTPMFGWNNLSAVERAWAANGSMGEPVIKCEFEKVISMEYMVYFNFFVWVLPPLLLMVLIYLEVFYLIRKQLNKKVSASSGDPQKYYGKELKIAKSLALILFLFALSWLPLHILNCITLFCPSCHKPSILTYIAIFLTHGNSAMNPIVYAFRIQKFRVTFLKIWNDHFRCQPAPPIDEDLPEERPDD
Protocol: Test compound is weighed, dissolved in DMSO to make a stock solution of 10 mM, diluted with DMSO to prepare working solutions, then 100-fold diluted to the indicated concentrations. Human recombinant adenosine A1 receptors expressed in CHO-K1 cells were used to prepare membranes in incubation buffer (20 mM HEPES (4-(2-hydroxyethyl)-1-piperazineethanesulfonic acid) pH 7.4, 10 mM MgCl2, 100 mM NaCl). Test compound or vehicle (2.2 μL) was added in 200 μL of membranes and incubated with 20 μL of 1 nM [^3H] DPCPX (8-cyclopentyl-1,3-dipropylxanthine) for 90 minutes at 25° C. Non-specific binding was estimated in the presence of 100 μM R(−)-PIA ((R)—N-(1-methyl-2-phenylethyl)adenosine). The incubation was stopped by vacuum filtration onto 0.3% PEI (polyethylenimine) presoaked GF/B filters using a harvester followed by four washes with ice-cold 50 mM Tris-HCl, pH 7.4, and the radioactivity on GF/B filtermats counted in a scintillation counter (PerkinElmer Topcount™) to determine [^3H] DPCPX specifically bound. Final concentration of vehicle DMSO is 1%. Data is fitted using the non-linear curve fitting routines in Meth-IQ software (ID Business Solutions Ltd., UK).
The binding affinity of selected compounds against A1 receptor was assessed using the binding assay described above.

human recombinant A2AR = human recombinant A2AR (Homo sapiens, UniProt P29274); assay: Human A2A functional cAMP assay in human recombinant A2AR stable cell line (HEK293)
Chain of human recombinant A2AR (P29274 whole entry): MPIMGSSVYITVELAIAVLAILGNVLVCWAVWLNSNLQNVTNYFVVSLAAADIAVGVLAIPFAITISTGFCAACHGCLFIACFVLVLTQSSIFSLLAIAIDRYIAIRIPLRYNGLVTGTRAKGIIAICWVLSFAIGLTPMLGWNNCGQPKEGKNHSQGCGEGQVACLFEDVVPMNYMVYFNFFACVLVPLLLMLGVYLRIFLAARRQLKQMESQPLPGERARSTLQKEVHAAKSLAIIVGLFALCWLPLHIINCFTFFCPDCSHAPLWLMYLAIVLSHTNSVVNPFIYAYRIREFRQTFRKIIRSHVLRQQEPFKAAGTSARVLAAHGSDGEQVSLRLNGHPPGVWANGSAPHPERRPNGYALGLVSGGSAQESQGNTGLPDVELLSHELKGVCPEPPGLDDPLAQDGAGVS
Protocol: cAMP assay was performed on human recombinant A2AR stable cell line (HEK293). The cells were cultured at 37° C. and 5% CO2 with culture medium (90% DMEM+10% FBS+500 μg/mL G418). […] Then, 100 nL compounds were transferred by Echo machine with 12 doses respectively. Cells were collected with stimulation buffer (1×HBSS with 5 mM HEPES+0.05 mM IBMX+0.1% BSA) and plated the cells at the density of 5,000 cells/well, centrifuged at 600 rpm for 3 min and then incubation with compounds at room temperature for 60 min. After that, 5 μL 4× Eu-cAMP tracer solution and 5 μL 4× ULight™-anti-cAMP solution were added into the cells, centrifuged at 600 rpm for 3 min and incubated for 60 min. cAMP signal was detected with Envision. GraphPad Prism (version 6.0) was used for the data analysis.
The A2A receptor antagonistic activity of selected compounds was assessed using the cAMP assay described above.

[2] = biological target: T2, Human recombinant adenosine A2A receptor (Homo sapiens, UniProt P29274); assay: A2A receptor (A2AR) SPA binding assay with [3H] SCH58261; set-up: expressed in transfected cells; host or cells: HEK293 (HKE293 [sic]), membrane preparation; settings: [3H] SCH58261 radioligand
T2 sequence (P29274 whole entry): as above
Protocol: Test compound is weighed, then dissolved in 100% DMSO to prepare 20 mM stock solution. Dilute the stock solution with DMSO into 100× final concentration, and then use this DMSO solution to perform 3-fold serial dilution for totally 12 concentrations with DMSO. 10-fold diluting the serial dilutions with assay buffer to the working concentrations. […] SCH58261 as the radioligand. The assay buffer is prepared with DPBS containing 10 mM MgCl2. 5 μL of compound working solutions (a total of 12 concentrations starting from 1 or 3 μM, 1/3 dilution) is transferred to the wells by the 12-channel pipette. A2AR membrane is pre-incubated with adenosine deaminase for 15 min at room temperature. Then SPA beads are added and the membrane-bead suspension mixture is incubated for 30 min at room temperature with the rotary mixer. […] SCH58261 radioligand solution. Final concentration of DMSO in the A2AR SPA binding assay is 1%. Sealing the plates and incubate for 1 hr at 27° C. with vigorous mixing on a plate shaker. After 1 hr, centrifuge the plate (1000 rpm, 1 min), and settle the plate for 5 min prior to counting. The signal of radiation is measured by the Microbeta2. […] Non-specific binding refers to the wells containing reaction system with the presence of 100 μM SCH58261. The dose-response curve is fitted with GraphPad Prism 5 and IC50 values are calculated by log(inhibitor) vs. response—Variable slope program with the following formula: Y=Bottom+(Top−Bottom)/(1+10^[…] ligand concentration used in assay/radio ligand Kd)
The binding affinity of selected compounds against A2A receptor was assessed using the SPA binding assay described above.

[3] = biological target: T2, Human recombinant adenosine A2A receptor; assay: Human adenosine A2A receptor binding assay with [3H] CGS-21680 (Example 4.2); settings: summary of Table 5, binding assays of Examples 4.1 and 4.2
Protocol: Test compound is weighed, dissolved in DMSO to make a stock solution of 10 mM, diluted with DMSO to prepare working solutions, then 100-fold diluted to the indicated concentrations. Human recombinant adenosine A2A receptors expressed in HEK-293 cells were used to prepare membranes in incubation buffer (50 mM Tris-HCl, pH 7.4, 10 mM MgCl2, 1 mM EDTA, 2 U/ml Adenosine Deaminase). Test compound or vehicle (2.2 μL) was added in 200 μL of membranes and incubated with 20 μL of 50 nM [^3H] […] Non-specific binding was estimated in the presence of 50 μM NECA (5′-N-ethylcarboxamidoadenosine). The incubation was stopped by vacuum filtration onto 0.3% PEI (polyethylenimine) presoaked GF/B filters using a harvester followed by four washes with ice-cold 50 mM Tris-HCl, pH 7.4, and the radioactivity on GF/B filtermats counted in a scintillation counter (PerkinElmer Topcount™) to determine [^3H] […] Final concentration of vehicle DMSO is 1%.

With N#Cc1cccc(-c2nc(N)nc3c2ncn3Cc2ccc(N)cc2)c1 [Compound 101, 3-(2-amino-9-(4-aminobenzyl)-9H-purin-6-yl) benzonitrile] the pKi [1] was under 6.00, the pIC50 (human recombinant A2AR) was under 6.00 and the pKi [2] was 7.00 to 8.00.
With N#Cc1cccc(-c2nc(N)nc3c2ncn3Cc2ccc(N)cc2)c1F [Compound 102, 3-(2-amino-9-(4-aminobenzyl)-9H-purin-6-yl)-2-fluorobenzonitrile] the pKi [2] was 6.30 to 7.00.
N#Cc1cccc(-c2nc(N)nc3c2ncn3Cc2ccc(N)cc2F)c1F [Compound 103, 3-(2-amino-9-(4-amino-2-fluorobenzyl)-9H-purin-6-yl)-2-fluorobenzonitrile] was tested, and the pKi [1] was under 6.00, the pIC50 (human recombinant A2AR) was under 6.00 and the pKi [2] was 7.00 to 8.00.
For Cc1cc(Cn2cnc3c(-c4cccc(C#N)c4)nc(N)nc32)ccc1N [Compound 104, 3-(2-amino-9-(4-amino-3-methylbenzyl)-9H-purin-6-yl)benzonitrile], the pKi [1] was under 6.00, the pIC50 (human recombinant A2AR) was over 6.52 and the pKi [2] was over 8.00.
Compound Cc1c(C#N)cccc1-c1nc(N)nc2c1ncn2Cc1ccc(N)cc1 [Compound 105, 3-(2-amino-9-(4-aminobenzyl)-9H-purin-6-yl)-2-methylbenzonitrile] has a pKi [2] of under 6.30.
Cc1cc(Cn2cnc3c(-c4cccc(C#N)c4F)nc(N)nc32)ccc1N [Compound 106, 3-(2-amino-9-(4-amino-3-methylbenzyl)-9H-purin-6-yl)-2-fluorobenzonitrile] showed a pKi [1] of under 6.00 and a pKi [2] of 7.00 to 8.00.
Work on N#Cc1cccc(-c2nc(N)nc3c2ncn3Cc2c(F)cc(N)cc2F)c1 [Compound 107, 3-(2-amino-9-(4-amino-2,6-difluorobenzyl)-9H-purin-6-yl)benzonitrile] yielded a pKi [1] of at least 6.52, a pIC50 (human recombinant A2AR) of over 6.52 and a pKi [2] of over 8.00.
Compound N#Cc1cccc(-c2nc(N)nc3c2ncn3Cc2c(F)cc(N)cc2F)c1F [Compound 108, 3-(2-amino-9-(4-amino-2,6-difluorobenzyl)-9H-purin-6-yl)-2-fluorobenzonitrile] has a pKi [1] of 6.00 to 6.52, a pIC50 (human recombinant A2AR) of 6.00 to 6.52 and a pKi [2] of 7.00 to 8.00.
In the case of N#Cc1cccc(-c2nc(N)nc3c2ncn3Cc2ccc(N)cc2F)c1 [Compound 109, 3-(2-amino-9-(4-amino-2-fluorobenzyl)-9H-purin-6-yl)benzonitrile], the pKi [1] was 6.00 to 6.52, the pIC50 (human recombinant A2AR) was over 6.52 and the pKi [2] was over 8.00.
With N#Cc1cccc(-c2nc(N)nc3c2ncn3Cc2ccc(N)c(C(F)(F)F)c2)c1 [Compound 110, 3-[2-amino-9-[[4-amino-3-(trifluoromethyl)phenyl]methyl]purin-6-yl]benzonitrile] the pKi [1] was 6.00 to 6.52, the pIC50 (human recombinant A2AR) was over 6.52 and the pKi [2] was over 8.00.
For N#Cc1cccc(-c2nc(N)nc3c2ncn3Cc2ccc(N)c(C(F)(F)F)c2)c1F [Compound 111, 3-[2-amino-9-[[4-amino-3-(trifluoromethyl)phenyl]methyl]purin-6-yl]2-fluorobenzonitrile], the pKi [1] was under 6.00, the pIC50 (human recombinant A2AR) was under 6.00 and the pKi [2] was 7.00 to 8.00.
With N#Cc1cccc(-c2nc(N)nc3c2ncn3Cc2c(F)cccc2F)c1 [Compound 112, 3-(2-amino-9-(2,6-difluorobenzyl)-9H-purin-6-yl) benzonitrile] the pKi [1] was at least 6.52, the pIC50 (human recombinant A2AR) was over 6.52 and the pKi [2] was over 8.00.
N#Cc1cccc(-c2nc(N)nc3c2ncn3Cc2c(F)cccc2F)c1F [Compound 113, 3-(2-amino-9-(2,6-difluorobenzyl)-9H-purin-6-yl)-2-fluorobenzonitrile] showed a pKi [1] of 6.00 to 6.52, a pIC50 (human recombinant A2AR) of 6.00 to 6.52 and a pKi [2] of 7.00 to 8.00.
For Cc1c(C#N)cccc1-c1nc(N)nc2c1ncn2Cc1c(F)cccc1F [Compound 114, 3-(2-amino-9-(2,6-difluorobenzyl)-9H-purin-6-yl)-2-methylbenzonitrile], the pKi [1] was under 6.00 and the pKi [2] was 7.00 to 8.00.
N#Cc1cc(-c2nc(N)nc3c2ncn3Cc2ccc(N)cc2)ccn1 [Compound 118, 4-[2-amino-9-[(4-aminophenyl)methyl]purin-6-yl]pyridine-2-carbonitrile] gave a pKi [2] of under 6.30.
N#Cc1cccc(-c2nc(N)nc3c2ncn3Cc2ccc(N)cc2F)n1 [Compound 119, 6-[2-amino-9-[(4-amino-2-fluoro-phenyl)methyl]purin-6-yl]pyridine-2-carbonitrile] was tested, and the pKi [2] was 6.30 to 7.00.
N#Cc1ccnc(-c2nc(N)nc3c2ncn3Cc2ccc(N)cc2F)c1 [Compound 120, 2-[2-amino-9-[(4-amino-2-fluoro-phenyl)methyl]purin-6-yl]pyridine-4-carbonitrile] showed a pKi [1] of 6.00 to 6.52, a pIC50 (human recombinant A2AR) of over 6.52 and a pKi [2] of over 8.00.
Work on N#Cc1ccnc(-c2nc(N)nc3c2ncn3Cc2c(F)cc(N)cc2F)c1 [Compound 124, 2-[2-amino-9-[(4-amino-2,6-difluoro-phenyl)methyl]purin-6-yl]pyridine-4-carbonitrile] yielded a pKi [1] of at least 6.52, a pIC50 (human recombinant A2AR) of over 6.52 and a pKi [2] of over 8.00.
N#Cc1cncc(-c2nc(N)nc3c2ncn3Cc2c(F)cc(N)cc2F)c1 [Compound 125, 5-[2-amino-9-[(4-amino-2,6-difluoro-phenyl)methyl]purin-6-yl]pyridine-3-carbonitrile] gave a pKi [2] of 6.30 to 7.00.
Work on N#Cc1cc(-c2nc(N)nc3c2ncn3Cc2c(F)cc(N)cc2F)ccn1 [Compound 126, 4-[2-amino-9-[(4-amino-2,6-difluoro-phenyl)methyl]purin-6-yl]pyridine-2-carbonitrile] yielded a pKi [2] of 7.00 to 8.00.
Work on Cc1cc(Cn2cnc3c(-c4cc(C#N)ccn4)nc(N)nc32)ccc1N [Compound 128, 2-[2-amino-9-[(4-amino-3-methyl-phenyl)methyl]purin-6-yl]pyridine-4-carbonitrile] yielded a pKi [1] of 6.00 to 6.52, a pIC50 (human recombinant A2AR) of 6.00 to 6.52 and a pKi [2] of over 8.00.
With N#Cc1ccnc(-c2nc(N)nc3c2ncn3Cc2c(F)cccc2F)c1 [Compound 132, 2-[2-amino-9-[(2,6-difluorophenyl)methyl]purin-6-yl]pyridine-4-carbonitrile] the pKi [1] was at least 6.52, the pIC50 (human recombinant A2AR) was over 6.52 and the pKi [2] was over 8.00.
In the case of N#Cc1cc(-c2nc(N)nc3c2ncn3Cc2c(F)cccc2F)ccn1 [Compound 134, 4-[2-amino-9-[(2,6-difluorophenyl)methyl]purin-6-yl]pyridine-2-carbonitrile], the pKi [2] was 7.00 to 8.00.
For N#Cc1cccc(-c2nc(N)nc3c2cnn3Cc2ccc(N)cc2F)c1F [Compound 203, 3-(6-amino-1-(4-amino-2-fluorobenzyl)-1H-pyrazolo[3,4-d]pyrimidin-4-yl)-2-fluorobenzonitrile], the “activity as dual antagonists of both A2A and A1 receptors (in words)” value (“activity as dual antagonists” for short) [3] was “potent activity as dual antagonists”.
Cc1cc(Cn2ncc3c(-c4cccc(C#N)c4F)nc(N)nc32)ccc1N [Compound 206, 3-(6-amino-1-(4-amino-3-methylbenzyl)-1H-pyrazolo[3,4-d]pyrimidin-4-yl)-2-fluorobenzonitrile] was tested, and the “activity as dual antagonists” value [3] was “potent activity as dual antagonists”.
In the case of N#Cc1cccc(-c2nc(N)nc3c2cnn3Cc2c(F)cc(N)cc2F)c1 [Compound 207, 3-(6-amino-1-(4-amino-2,6-difluorobenzyl)-1H-pyrazolo[3,4-d]pyrimidin-4-yl)benzonitrile], the “activity as dual antagonists” value [3] was “potent activity as dual antagonists”.
